Data: patent US20210121577A1, “FILM COATED TABLET FOR THE TREATMENT OF ACUTE PAIN” (SANOFI-AVENTIS DEUTSCHLAND GMBH, priority 2014, published 2021)

Tested on: post-operative dental pain
Test: Clinical trial in patients with post-operative dental pain (model for acute pain), randomized double-blind parallel-group
Assay type: in vivo
Conditions: single dose, ibuprofen 400 mg, caffeine 100 mg or fixed combination
Method: Male and female patients between the ages of 18 and 55 years, scheduled for the extraction of 3 to 4 unsound wisdom teeth, with at least 2 extracted molars were recruited; the baseline of dental pain intensity must be at least moderate on a verbal evaluation scale and at least 5 on a numerical evaluation scale ranging from 0 to 10.
The pain intensity (PI) was evaluated in a diary before administration and at 0.25, 0.5, 0.75, 1, 1.5, 2, 3, 4, 5, 6, 7 and 8 hours after the first dose of the study medication using an 11-point numerical rating scale (NPRS) from 0=“no pain” to 10=“worst possible pain”.
The pain relief (PAR) beginning from pain onset was evaluated in a patient diary using a 5-point rating scale (VRS) (0=no pain relief; 1=a little pain relief; 2=some pain relief; 3=much pain relief; 4=complete pain relief) at the same time points as for the PI evaluation.
As soon as a patient needed an emergency medication or a second dose of the medication within less than 8 hours, PI and PAR were evaluated before the emergency medication or second dose was administered.
The time-weighted sum of pain relief (PAR) and the pain intensity difference (PID) relative to baseline between 0 and 8 hours is determined as follows:
Higher values of the SPRID0-8 h likewise indicate greater benefit for the patient.

Structure (SMILES): CC(C)Cc1ccc(C(C)C(=O)O)cc1 (racemic) [Ibuprofen, (+/−) 2-(p-isobutylphenyl)-propionic acid]
- Median duration of action (Kaplan-Meyer analysis): 7.1 h
- Adjusted Mean SPRID0-8 h value (time-weighted sum of pain relief and pain intensity difference from 0 to 8 hours) (study stage 1, primary endpoint, higher = greater benefit): 40.165
- Adjusted Mean SPRID0-2 h value (time-weighted sum of PAR and PID from 0 to 2 hours) (study stage 1, secondary endpoint): 6.990
